Series [1] can be described thus: Stability of compounds in simulated intestinal fluid (SIF). The series is classed as in vitro ADME. The following applies: simulated intestinal fluid (3 mg/mL pancreatin), incubation time 6 hr, relative to t=0. Summed up: (§1)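 Compounds at […] were incubated 3 or 6 hr in USP simulated gastric fluid with 3 mg/mL pepsin or simulated intestinal fluid with 3 mg/mL pancreatin. Remaining compound was quantified by HPLC-UV or HPLC-MS peak area % and reported as percent of the t=0 level in the same medium.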

The nature of series [2]: Determination of compound Cmax and AUC after oral gavage (plasma LC-MS/MS). The series is classed as in vivo, Sprague-Dawley rats. The following applies: Sprague-Dawley, rat, plasma, po, Structure (I) examples. The essentials:
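Plasma exposure measured by LC-MS/MS after acetonitrile precipitation with internal standard, quantified against a standard curve made in plasma. Compound given orally by gavage to Sprague-Dawley rats at nominal 2.5 or 10 mg/kg, with K2EDTA plasma sampled at 0.5, 1, 2 and 4 h.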

The target in the next series is T1, human NaP2b (SLC34A2) (Homo sapiens, UniProt O95436).
T1 construct: host or cells: HEK293
T1 sequence (O95436 1-690): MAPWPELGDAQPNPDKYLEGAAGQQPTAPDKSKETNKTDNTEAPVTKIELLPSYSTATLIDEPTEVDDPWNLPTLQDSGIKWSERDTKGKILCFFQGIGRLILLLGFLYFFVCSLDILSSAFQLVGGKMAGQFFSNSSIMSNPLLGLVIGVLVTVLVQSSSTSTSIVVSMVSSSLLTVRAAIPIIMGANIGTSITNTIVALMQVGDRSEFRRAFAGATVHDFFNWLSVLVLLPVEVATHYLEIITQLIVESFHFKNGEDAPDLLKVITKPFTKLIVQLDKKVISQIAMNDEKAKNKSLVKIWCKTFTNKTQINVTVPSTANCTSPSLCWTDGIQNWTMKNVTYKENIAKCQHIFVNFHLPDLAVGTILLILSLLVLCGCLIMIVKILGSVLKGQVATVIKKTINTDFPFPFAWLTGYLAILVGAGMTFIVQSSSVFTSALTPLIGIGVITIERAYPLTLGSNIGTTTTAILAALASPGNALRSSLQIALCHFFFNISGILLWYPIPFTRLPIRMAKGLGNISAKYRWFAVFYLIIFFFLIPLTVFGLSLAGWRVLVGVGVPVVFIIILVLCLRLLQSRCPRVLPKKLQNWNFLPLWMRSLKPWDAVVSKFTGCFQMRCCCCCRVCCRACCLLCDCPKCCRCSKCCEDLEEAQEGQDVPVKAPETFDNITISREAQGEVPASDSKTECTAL
As to the kind of experiment: Inhibition of NaP2b-mediated Pi (33P) uptake in transfected HEK293 cells, human NaP2b. The following applies: read-out: pIC50 range for human NaP2b (converted). It is filed as cell-based. The essentials: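 Uptake of 33P-phosphate (100 uM KH2PO4 carrier, sodium vs choline buffer, pH 7.4) measured after 3-30 min at room temperature, with test compound at twelve concentrations from 0.1 nM to 30 uM in duplicate. Cells were HEK293 transfected with mutated human NaP2b (Thr insertion after 37, N39D) and treated with a PiT-silencing agent. pIC50 values from scintillation counts.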

Series [3] in a line: Stability of compounds in simulated gastric fluid (SGF). It is filed as in vitro ADME. The following applies: simulated gastric fluid (3 mg/mL pepsin), incubation time 6 hr, relative to t=0. The essentials: as §1
In a further series the target is T2, rat NaP2b (SLC34A2) (Rattus norvegicus, UniProt Q9JJ09).
T2 construct: host or cells: HEK293
T2 sequence (Q9JJ09 1-695): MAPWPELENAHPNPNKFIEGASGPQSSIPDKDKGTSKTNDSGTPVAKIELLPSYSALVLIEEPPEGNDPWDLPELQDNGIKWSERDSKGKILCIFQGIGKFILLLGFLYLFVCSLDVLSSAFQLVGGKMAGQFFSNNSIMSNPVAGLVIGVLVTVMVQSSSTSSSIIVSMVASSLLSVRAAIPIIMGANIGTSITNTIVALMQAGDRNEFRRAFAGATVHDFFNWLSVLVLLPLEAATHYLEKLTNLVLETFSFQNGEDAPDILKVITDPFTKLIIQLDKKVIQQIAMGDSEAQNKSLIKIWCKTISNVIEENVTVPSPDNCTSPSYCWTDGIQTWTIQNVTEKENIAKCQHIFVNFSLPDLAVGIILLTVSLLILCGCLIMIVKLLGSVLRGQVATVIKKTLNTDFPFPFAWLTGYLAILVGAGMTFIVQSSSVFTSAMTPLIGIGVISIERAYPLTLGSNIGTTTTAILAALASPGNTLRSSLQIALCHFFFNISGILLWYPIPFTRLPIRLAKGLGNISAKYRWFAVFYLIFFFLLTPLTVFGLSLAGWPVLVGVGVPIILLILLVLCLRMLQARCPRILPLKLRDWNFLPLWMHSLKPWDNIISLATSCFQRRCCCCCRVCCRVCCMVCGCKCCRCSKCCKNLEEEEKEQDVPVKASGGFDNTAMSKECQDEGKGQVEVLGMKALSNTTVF
As to the kind of experiment: Inhibition of NaP2b-mediated Pi (33P) uptake in transfected HEK293 cells, rat NaP2b. The series is classed as cell-based. The following applies: 33P Pi uptake, 0.1 mM phosphate, value given as pIC50 range. Summed up: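 The cells transiently expressed NaP2b after Lipofectamine transfection. Each compound was run in duplicate over twelve concentrations, 0.1 nM–30 uM.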

Series [4] relates to Uptake of Phosphorus from the Intestine. As to the kind of experiment: In vivo co-dosing in chow (urine P out / P consumed). The conditions noted are these: Rattus norvegicus, feed or water; rats, compound in chow; mean drug dose 74 mg/kg/day; read-out: Mean % inhibition Urine Pout/P consumed. The text has this: Male, 7-week-old Sprague-Dawley rats (Charles-River laboratories international, Hollister, Calif.) were allowed to acclimate for a minimum of 3 days. The experiment was initiated by switching animals to a synthetic diet (0.6% phosphorus and 0.6% calcium, Harlan Teklad TD.84122) for four days. After this time, the animals were placed into metabolic cages for daily monitoring of food and water consumption, as well as urine and fecal collections. Test compounds were incorporated into the powdered diet listed above containing 3% chocolate flavoring (w/w, BioServ #7345) at 1.3 mg test compound per gram of diet to achieve an average daily nominal dose of 100 mg/kg/day. The actual dose received by each animal was later determined by measuring prepared diet consumption and body weight. Urine samples were collected in three daily periods from 24-48, 48-72, and 72-96 hours of drug dosing. Averaging these three 24 h periods allows for the more representative measurements of urination, fecal excretion, food consumption and water uptake for each animal. Phosphorus levels in the urine were determined by anion exchange chromatography using a Dionex ICS-3000 ion chromatography system. Urine samples were diluted 1:500 or 1:1000 and injected onto an IonPac AS18 analytical column (2×250 mm) using a potassium hydroxide eluent. Elution of urine phosphate ions was monitored via conductivity detector and reported as ppm relative to a standard ion solution containing phosphate. Daily urinary P output relative to the P consumed in the prepared diet for each animal was calculated. The percentage inhibition of phosphorus absorption was estimated by determining the reduction of this ratio compared to the control group (animals with no drug in chow). The differences between the means of control and treated groups were evaluated by t tests. In all experiments, one group was always included that had Renvela powder blended into their chow at 0.9% targeting a dose of 750 mg/kg.

The mark [5] stands for this setting: Table 15, actual oral dose 3-15 mg/kg, plasma 0.5-4 h.
Setting [6] is: Table 15, actual oral dose 15-40 mg/kg, plasma 0.5-4 h.

One may read the AUC as the area under the concentration-time curve, a measure of exposure. The low end stands for low exposure, the high end for high exposure. Usually Cmax stands for the peak of the concentration-time curve. Consider `CCN(CC)c1ccc(NC(=O)c2cccc(CSCCOCCOCCOCCOCCC(=O)N(CCO)CCO)c2)c(-c2cc(C(=O)N[C@H]3CCCc4ccccc43)ccn2)c1` [Example 160, (S)-2-(5-(diethylamino)-2-(3-(20-hydroxy-18-(2-hydroxyethyl)-17-oxo-5,8,11,14-tetraoxa-2-thia-18-azaicosyl)benzamido)phenyl)-N-(1,2,3,4-tetrahydronaphthalen-1-yl)isonicotinamide], for which the “% remaining, SIF” value in series [1] is 40-60%. Moreover, in series [2] (setting [5]), the AUC was below 10 ng·h/mL and the Cmax was below 10 ng/mL. Besides, on human NaP2b (SLC34A2), the IC50 was below 1 µM. Besides, the “% remaining, SGF” value in series [3] was above 80%. On rat NaP2b (SLC34A2), this compound had an IC50 below 1 µM.
As to `O=C(O)c1cccc(SCc2cccc(C(=O)Nc3ccc(Cl)cc3-c3cc(C(=O)NCc4cccc(C(F)(F)F)c4)ccn3)c2)c1` [Example 8.25, 3-(3-(4-chloro-2-(4-(3-(trifluoromethyl)benzylcarbamoyl)pyridin-2-yl)phenylcarbamoyl)benzylthio)benzoic acid], the “% remaining, SIF” value in series [1] is above 80%. Also, in series [2] (setting [5]), the AUC was above 50 ng·h/mL and the Cmax was below 30 ng/mL. In addition, the IC50 on human NaP2b (SLC34A2) was below 1 µM. Moreover, in series [3], the “% remaining, SGF” value was above 80%. The IC50 at rat NaP2b (SLC34A2) was 1 to 7.94 µM.
Take `O=C(O)CCOCCOCCOCCOCCCc1cccc(C(=O)Nc2ccc(Cl)cc2-c2cc(C(=O)N[C@H]3CCCc4ccccc43)ccn2)c1` [Example 253, (S)-16-(3-(4-(chloro)-2-(4-(1,2,3,4-tetrahydronaphthalen-1-ylcarbamoyl)pyridin-2-yl)phenylcarbamoyl)phenyl)-4,7,10,13-tetraoxahexadecan-1-oic acid]: in series [1], the “% remaining, SIF” value was above 80%. In series [2] (setting [6]), this compound came in with an AUC below 10 ng·h/mL. This compound also came in with a Cmax in series [2] (Table 15, plasma 0.5-4 h) below 10 ng/mL. The IC50 on human NaP2b (SLC34A2) and at rat NaP2b (SLC34A2) was below 1 µM in each case. Moreover, in series [3], the “% remaining, SGF” value is recorded as 60-80%.
In the case of `CCN(CC)c1ccc(NC(=O)c2cccc(C(=O)N(C)CCN3CCOCC3)c2)c(-c2cc(C(=O)NCc3cccc(C(F)(F)F)c3)ccn2)c1` [Example 25], in series [2] (setting [5]), the AUC is below 30 ng·h/mL and the Cmax was below 30 ng/mL. Moreover, in series [4], the inhibition in vivo at 74 mg/kg/day lay in the range of 10 to 30%.
With `CCN(CC)c1ccc(NC(=O)c2cccc(CSCCOCCOCCOCCOCCC(=O)NC(CO)(CO)CO)c2)c(-c2cc(C(=O)N[C@H]3CCCc4ccccc43)ccn2)c1` [Example 158, (S)-2-(5-(diethylamino)-2-(3-(20-hydroxy-19,19-bis(hydroxymethyl)-17-oxo-5,8,11,14-tetraoxa-2-thia-18-azaicosyl)benzamido)phenyl)-N-(1,2,3,4-tetrahydronaphthalen-1-yl)isonicotinamide], in series [1], the “% remaining, SIF” value is given as 20-40%. This compound yielded an AUC in series [2] (setting [5]) below 10 ng·h/mL. Further, in series [2] (setting [5]), the Cmax was below 10 ng/mL. Also, the IC50 on human NaP2b (SLC34A2) and on rat NaP2b (SLC34A2) was below 1 µM throughout. In addition, in series [3], the “% remaining, SGF” value was above 80%.
With `CN(CCOCCOCCOCCC(=O)O)C(=O)Cc1cccc(SCc2cccc(C(=O)Nc3ccc(Cl)cc3-c3cc(C(=O)N[C@H]4CCCc5ccccc54)ccn3)c2)c1` [Example 239, (S)-1-(3-(3-(4-chloro-2-(4-(1,2,3,4-tetrahydronaphthalen-1-ylcarbamoyl)pyridin-2-yl)phenylcarbamoyl)benzylthio)phenyl)-3-methyl-2-oxo-6,9,12-trioxa-3-azapentadecan-15-oic acid], the “% remaining, SIF” value in series [1] is given as above 80%. For the same compound, in series [2] (setting [6]), the AUC was below 30 ng·h/mL. The Cmax in series [2] (Table 15, plasma 0.5-4 h) is below 30 ng/mL. The IC50 on human NaP2b (SLC34A2) and on rat NaP2b (SLC34A2) was below 1 µM each time. In series [3], the “% remaining, SGF” value is listed as 60-80%.
Consider `CCN(CC)c1ccc(NC(=O)c2cccc(C(=O)N(C)CCN3CCC[C@H]3C(=O)NCCOCCOCCOCCOCCOCCOCCOCCOC)c2)c(-c2cc(C(=O)N[C@H]3CCCc4ccccc43)ccn2)c1` [Example 196, N^1-(2-((S)-2-(2,5,8,11,14,17,20,23-octaoxapentacosan-25-ylcarbamoyl)pyrrolidin-1-yl)ethyl)-N^3-(4-(diethylamino)-2-(4-(((S)-1,2,3,4-tetrahydronaphthalen-1-yl)carbamoyl)pyridin-2-yl)phenyl)-N-methylisophthalamide], for which, in series [1], the “% remaining, SIF” value was above 80%. In series [2] (setting [5]), this compound came in with an AUC above 50 ng·h/mL and a Cmax above 50 ng/mL. For the same compound, at human NaP2b (SLC34A2), the IC50 is 1 to 7.94 µM. Moreover, the “% remaining, SGF” value in series [3] is listed as above 80%. For the same compound, the IC50 against rat NaP2b (SLC34A2) is 1 to 7.94 µM.
In the case of `CCN(CC)c1ccc(NC(=O)c2cccc(COCCOCCOCCOCCOCCOCCO)c2)c(-c2cc(C(=O)NCc3cccc(C(F)(F)F)c3)ccn2)c1` [Example 168, 2-(5-(diethylamino)-2-(3-(19-hydroxy-2,5,8,11,14,17-hexaoxanonadecyl)benzamido)phenyl)-N-(3-(trifluoromethyl)benzyl)isonicotinamide], the “% remaining, SIF” value in series [1] is given as above 80%. For the same compound, in series [2] (setting [5]), the AUC was below 30 ng·h/mL and the highest concentration (Cmax) was below 10 ng/mL. Besides, on human NaP2b (SLC34A2), the IC50 was below 1 µM. In series [3], the “% remaining, SGF” value is above 80%. For the same compound, the IC50 against rat NaP2b (SLC34A2) is below 1 µM.

These data come from patent US20140023611A1 (priority 2010, published 2014).
